One assay addresses T1, human NK2-receptor (Homo sapiens, UniProt P21452).
T1 sequence (P21452 1-398): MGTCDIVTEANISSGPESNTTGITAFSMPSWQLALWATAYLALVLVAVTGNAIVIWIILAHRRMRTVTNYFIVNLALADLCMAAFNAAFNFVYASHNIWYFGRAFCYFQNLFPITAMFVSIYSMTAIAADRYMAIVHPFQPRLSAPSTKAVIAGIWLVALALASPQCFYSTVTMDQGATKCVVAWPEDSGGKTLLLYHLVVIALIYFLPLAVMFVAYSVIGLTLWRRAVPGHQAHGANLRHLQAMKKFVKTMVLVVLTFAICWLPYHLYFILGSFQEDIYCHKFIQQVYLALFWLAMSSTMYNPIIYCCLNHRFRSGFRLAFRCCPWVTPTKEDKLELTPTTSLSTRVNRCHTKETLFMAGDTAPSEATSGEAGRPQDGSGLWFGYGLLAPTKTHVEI
Put plainly: Binding potency of the test substances to NK2-receptors in vitro ([3H]-SR 48968 displacement). Further details: expressed in transfected cells; host or cells: CHO cells (membrane preparation). To be noted: human NK2-receptor in CHO cell membranes, [3H]-SR 48968 (saredutant); average of at least three measurements; read-out: pKi, binding potency to NK2-receptors (converted). The source says:
2. Determination of the Binding Potency of the Test Substances to NK2-Receptors in Vitro
The affinity of test compounds for NK2-receptors can be determined by measuring the ability of the test compound to displace a radiolabeled ligand from its specific binding site.
(§1) The radiolabel used in this assay is [^3H]-SR 48968 (saredutant). Receptors were obtained from membrane preparations of CHO-cells (Chinese Hamster Ovary cells), in which the human NK2-receptor was stably expressed. Membranes were incubated with [^3H]-saredutant in the absence or presence of test compounds at different concentrations, diluted in a buffer system. Separation of bound radioactivity from free radioactivity was done by filtration through glass fiber filters (Packard GF/B) with several washings with ice-cold buffer solution. Bound radioactivity was measured with a liquid scintillation counter (total binding). Unspecific binding was determined by incubation with an excess (0.1 μmol/l) of unlabeled saredutant. Specific binding is obtained by subtracting the unspecific binding from the total binding.
Radioactivity of the specific binding was plotted against the concentration of the test compound and IC50 values, i.e. the concentration of test compound by which 50% of the radioligand is displaced, were calculated. The inhibition constant (Ki) was calculated according to the Cheng-Prusoff equation, and listed as its negative logarithmic value (pKi). The pKi value describes the potency of a test compound to bind to a receptor.
(§2) The average result of all measurements is listed above.

Another assay has as its target T2, human NK3 receptor (Homo sapiens, UniProt P29371).
T2 sequence (P29371 1-465): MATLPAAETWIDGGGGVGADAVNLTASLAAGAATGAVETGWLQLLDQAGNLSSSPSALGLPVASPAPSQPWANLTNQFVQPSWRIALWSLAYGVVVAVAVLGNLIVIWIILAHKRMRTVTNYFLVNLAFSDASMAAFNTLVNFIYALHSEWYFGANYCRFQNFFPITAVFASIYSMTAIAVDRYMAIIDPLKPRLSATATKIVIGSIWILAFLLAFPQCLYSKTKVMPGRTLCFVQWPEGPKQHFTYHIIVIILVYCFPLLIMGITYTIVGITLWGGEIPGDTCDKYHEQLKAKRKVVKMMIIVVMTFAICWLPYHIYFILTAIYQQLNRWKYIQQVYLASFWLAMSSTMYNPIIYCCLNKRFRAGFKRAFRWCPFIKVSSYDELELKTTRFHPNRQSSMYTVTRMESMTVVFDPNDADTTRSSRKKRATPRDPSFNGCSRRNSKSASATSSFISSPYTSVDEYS
Put plainly: Binding potency of the test substances to NK3-receptors in vitro ([3H]-SR 142801 displacement). Further details: expressed in transfected cells; host or cells: CHO cells (membrane preparation). To be noted: human NK3-receptor in CHO cell membranes, [3H]-SR 142801 (osanetant), average of at least three measurements; for Ki: read-out: pKi, binding potency to NK3-receptors (converted).
Source text: 3. Determination of the Binding Potency of the Test Substances to NK3-Receptors in Vitro
The affinity of test compounds for NK3-receptors can be determined by measuring the ability of the test compound to displace a radiolabeled ligand from its specific binding site.
as §1, with “142801 (osanetant).” for “48968 (saredutant).”, “NK3-receptor” for “NK2-receptor”, “[^3H]-osanetant” for “[^3H]-saredutant”, “(1” for “(0.1”, “osanetant.” for “saredutant.”
Radioactivity of the specific binding was plotted against the concentration of the test compound and IC50 values, i.e. the concentration of test compound by which 50% of the radioligand is displaced, were calculated. The inhibition constant (Ki) was calculated according to the Cheng-Prusoff equation, and listed as its negative logarithmic value (pKi) The pKi value describes the potency of a test compound to bind to a receptor.
as §2

The text below walks through data of patent US20070219214A1, “Dual NK2/NK3-antagonists, pharmaceutical compositions comprising them, and processes for their preparation” (Solvay pharmaceuticals GmbH, priority 2006, published 2007).

Where only a bound is given, the exact number is not on record here.

On to `CSc1ncc(C(=O)N(C)CC(CCN2CCC(C(=O)N(C)C)(N3CCCCC3)CC2)c2ccc(Cl)c(Cl)c2)n1Cc1ccccc1` (stereo not drawn) [compound 20], for which the Ki at human NK2-receptor is 25.1 nM.
With `CN(C)C(=O)C1(N2CCCCC2)CCN(CCC(CN(C)C(=O)c2c(-c3ccccc3)oc3ccccc3c2=O)c2ccc(Cl)c(Cl)c2)CC1` (stereo not drawn) [compound 21], the Ki at human NK3 receptor was 63.1 nM; at human NK2-receptor it was 12.6 nM.
Consider `CN(C)C(=O)C1(N2CCCCC2)CCN(CCC(CN(C)C(=O)C2CC2)c2ccc(Cl)c(Cl)c2)CC1` (stereo not drawn) [compound 22], for which the Ki at human NK3 receptor is 50.1 nM; at human NK2-receptor, 15.8 nM.
The corresponding values for `CN(C)C(=O)C1(N2CCCCC2)CCN(CCC(CN(C)C(=O)c2ccccc2C(=O)O)c2ccc(Cl)c(Cl)c2)CC1` (stereo not drawn) [compound 25] are 63.1 nM and 5.01 nM.
Consider `CN(C)C(=O)C1(N2CCCCC2)CCN(CCC(CN(C)C(=O)c2ccc(OC(F)(F)F)cc2)c2ccc(Cl)c(Cl)c2)CC1` (stereo not drawn) [compound 26], for which the Ki was 50.1 nM on human NK3 receptor and 5.01 nM on human NK2-receptor.
As to `CN(C)C(=O)C1(N2CCCCC2)CCN(CCC(CN(C)C(=O)c2ccc(-c3ccccc3)cc2)c2ccc(Cl)c(Cl)c2)CC1` (stereo not drawn) [compound 27], the Ki at human NK2-receptor is 15.8 nM.
On the same count and under the same terms, the result for `CN(C)C(=O)C1(N2CCCCC2)CCN(CCC(CN(C)C(=O)CC(c2ccccc2)c2ccccc2)c2ccc(Cl)c(Cl)c2)CC1` (stereo not drawn) [compound 28] reads 20 nM.
On to `CN(C)C(=O)C1(N2CCCCC2)CCN(CCC(CN(C)C(=O)CCc2ccc(O)cc2)c2ccc(Cl)c(Cl)c2)CC1` (stereo not drawn) [compound 29], for which the figures for the Ki at human NK3 receptor and on human NK2-receptor were 50.1 nM and 2.51 nM, respectively.
Take `CN(C)C(=O)C1(N2CCCCC2)CCN(CCC(CN(C)C(=O)c2cccn2C)c2ccc(Cl)c(Cl)c2)CC1` (stereo not drawn) [compound 30]: the Ki at human NK3 receptor was 20 nM; on human NK2-receptor, 2.51 nM.
The corresponding values for `CN(C)C(=O)C1(N2CCCCC2)CCN(CCC(CN(C)C(=O)c2ccco2)c2ccc(Cl)c(Cl)c2)CC1` (stereo not drawn) [compound 31] are 39.8 nM and 3.98 nM.
The corresponding values for `CN(C)C(=O)C1(N2CCCCC2)CCN(CCC(CN(C)C(=O)c2ccc3ccccc3c2)c2ccc(Cl)c(Cl)c2)CC1` (stereo not drawn) [compound 32] are 39.8 nM and 15.8 nM.
On to `CN(C)C(=O)C1(N2CCCCC2)CCN(CCC(CN(C)C(=O)Cc2ccc(-c3ccccc3)cc2)c2ccc(Cl)c(Cl)c2)CC1` (stereo not drawn) [compound 33], for which the Ki on human NK3 receptor is 31.6 nM; at human NK2-receptor, 79.4 nM.
For `CN(C)C(=O)C1(N2CCCCC2)CCN(CCC(CN(C)C(=O)c2ccc[nH]2)c2ccc(Cl)c(Cl)c2)CC1` (stereo not drawn) [compound 35], the Ki at human NK2-receptor was 3.16 nM.
Take `CN(C)C(=O)C1(N2CCCCC2)CCN(CCC(CN(C)C(=O)c2ccsc2)c2ccc(Cl)c(Cl)c2)CC1` (stereo not drawn) [compound 38]: the Ki is 25.1 nM at human NK3 receptor and 1.58 nM on human NK2-receptor.
On the same counts, the results for `CN(C)C(=O)C1(N2CCCCC2)CCN(CCC(CN(C)C(=O)c2cc3ccccc3[nH]2)c2ccc(Cl)c(Cl)c2)CC1` (stereo not drawn) [compound 39] are 31.6 nM and 20 nM.
In the case of `CN(C)C(=O)C1(N2CCCCC2)CCN(CCC(CN(C)C(=O)Cc2c[nH]c3ccccc23)c2ccc(Cl)c(Cl)c2)CC1` (stereo not drawn) [compound 40], the Ki at human NK3 receptor is 63.1 nM; at human NK2-receptor, 12.6 nM.
Regarding `CN(C)C(=O)C1(N2CCCCC2)CCN(CCC(CN(C)C(=O)c2ccc3cc[nH]c3c2)c2ccc(Cl)c(Cl)c2)CC1` (stereo not drawn) [compound 41], the Ki at human NK3 receptor was 15.8 nM; on human NK2-receptor it was 3.16 nM.
In the case of `CN(C)C(=O)C1(N2CCCCC2)CCN(CCC(CN(C)C(=O)c2cnccn2)c2ccc(Cl)c(Cl)c2)CC1` (stereo not drawn) [compound 42], the Ki at human NK2-receptor is 15.8 nM.
In the case of `CN(C)C(=O)C1(N2CCCCC2)CCN(CCC(CN(C)C(=O)c2ccncc2)c2ccc(Cl)c(Cl)c2)CC1` (stereo not drawn) [compound 44], the Ki was 31.6 nM on human NK3 receptor and 5.01 nM at human NK2-receptor.
The corresponding values for `CN(C)C(=O)C1(N2CCCCC2)CCN(CCC(CN(C)C(=O)c2cc(=O)c3ccccc3o2)c2ccc(Cl)c(Cl)c2)CC1` (stereo not drawn) [compound 45] are 12.6 nM and 2.51 nM.
On the same counts, the results for `CN(C)C(=O)C1(N2CCCCC2)CCN(CCC(CN(C)C(=O)c2ccc(S(N)(=O)=O)cc2)c2ccc(Cl)c(Cl)c2)CC1` (stereo not drawn) [compound 46] are 31.6 nM and 6.31 nM.
On the same counts, the results for `CN(C)C(=O)C1(N2CCCCC2)CCN(CCC(CN(C)C(=O)c2ccc(Cl)c(S(N)(=O)=O)c2)c2ccc(Cl)c(Cl)c2)CC1` (stereo not drawn) [compound 47] are 20 nM and 3.16 nM.
As for `CN(C)C(=O)C1(N2CCCCC2)CCN(CCC(CN(C)C(=O)Cc2ccccn2)c2ccc(Cl)c(Cl)c2)CC1` (stereo not drawn) [compound 49], the Ki at human NK3 receptor was 7.94 nM; on human NK2-receptor it was 10 nM.
For the compound `CN(C)C(=O)C1(N2CCCCC2)CCN(CCC(CN(C)C(=O)Cc2cccnc2)c2ccc(Cl)c(Cl)c2)CC1` (stereo not drawn) [compound 50], the Ki was 10 nM at human NK3 receptor and 39.8 nM on human NK2-receptor.
For the compound `CN(C)C(=O)C1(N2CCCCC2)CCN(CCC(CN(C)C(=O)c2ccc(NC(=O)OC(C)(C)C)cc2)c2ccc(Cl)c(Cl)c2)CC1` (stereo not drawn) [compound 54], the Ki on human NK3 receptor is 6.31 nM.
On the same count and under the same terms, the result for `CN(C)C(=O)C1(N2CCCCC2)CCN(CCC(CN(C)C(=O)Cc2cc(O)nc(O)n2)c2ccc(Cl)c(Cl)c2)CC1` (stereo not drawn) [compound 57] reads 63.1 nM.
As to `CN(C)C(=O)C1(N2CCCCC2)CCN(CC[C@H](CN(C)C(=O)C(Cc2ccc(-c3ccccc3)cc2)NC(=O)C(C)(C)C)c2ccc(Cl)c(Cl)c2)CC1` (stereo partly drawn) [compound 60], the “pKi, binding potency to NK3-receptors” value at human NK3 receptor is on record as 7.2.
On to `COc1ccc(-c2ocnc2C(=O)N(C)CC(CCN2CCC(C(=O)N(C)C)(N3CCCCC3)CC2)c2ccc(Cl)c(Cl)c2)cc1` (stereo not drawn) [compound 66], for which the Ki at human NK3 receptor was 20 nM.
With `CN(C)C(=O)C1(N2CCCCC2)CCN(CCC(CN(C)C(=O)c2cccc3ccccc23)c2ccc(Cl)c(Cl)c2)CC1` (stereo not drawn) [compound 92], the Ki at human NK2-receptor was 20 nM.
Same read-out and setting: next, `CCN(C)C(=O)C1(N2CCCCC2)CCN(CC[C@H](CN(C)C(=O)c2ccccc2)c2ccc(Cl)c(Cl)c2)CC1` [compound 95, 1′-[(3S)-4-[benzoyl(methyl)amino]-3-(3,4-dichlorophenyl)butyl]-N-ethyl-N-methyl-1,4′-bipiperidine-4′-carboxamide]: no more than 10 nM.
With `CN(C)C(=O)C1CCCCN1C1CCN(CC[C@H](CN(C)C(=O)c2ccccc2)c2ccc(Cl)c(Cl)c2)CC1` (stereo partly drawn) [compound 100, 1′-[(3S)-4-[benzoyl(methyl)amino]-3-(3,4-dichlorophenyl)-butyl]-N,N-dimethyl-1,4′-bipiperidine-2-carboxamide], the Ki at human NK2-receptor was no more than 10 nM.
As for `CN(C)C(=O)C1CCCCN1C1CCN(CC[C@H](CN(C)C(=O)c2ccccc2)c2ccc(Cl)c(Cl)c2)CC1` (stereo partly drawn) [compound 100], the Ki at human NK2-receptor was 3.16 nM.
